Assay results published in paper PMC12951568, “Identifying Structural Factors Governing the Photodynamic Activity of Phthalocyanines” (Journal of Medicinal Chemistry, 2026).
Several values for one entry are separate records, joined by “and”; a condition that tells them apart may be missing. Equal entries are not always repeated.

Experiments:
[1] = Absorption and fluorescence emission spectra in DMF; assay type: physicochemical; conditions: in DMF
Description: An absorption spectrum of 2.475 mL of solvent (water, DMF, or PBS) was taken (i.e., absorption spectrum of baseline); then, 25 μL of stock solution was added to reach the final concentration of 1 μM in the cuvette, and the absorption and emission spectra were taken. Baseline of the solvent was subtracted from the obtained absorption spectrum to get the final absorption spectrum of the sample.

[2] = target: bovine serum albumin (BSA) (Bos taurus, UniProt P02769); assay: Interaction with bovine serum albumin (absorption and emission spectra in PBS); assay type: binding; conditions: 1 μM Pc in PBS, BSA 17.5, 35 and 100 μM
Chain of bovine serum albumin (BSA) (P02769 25-607): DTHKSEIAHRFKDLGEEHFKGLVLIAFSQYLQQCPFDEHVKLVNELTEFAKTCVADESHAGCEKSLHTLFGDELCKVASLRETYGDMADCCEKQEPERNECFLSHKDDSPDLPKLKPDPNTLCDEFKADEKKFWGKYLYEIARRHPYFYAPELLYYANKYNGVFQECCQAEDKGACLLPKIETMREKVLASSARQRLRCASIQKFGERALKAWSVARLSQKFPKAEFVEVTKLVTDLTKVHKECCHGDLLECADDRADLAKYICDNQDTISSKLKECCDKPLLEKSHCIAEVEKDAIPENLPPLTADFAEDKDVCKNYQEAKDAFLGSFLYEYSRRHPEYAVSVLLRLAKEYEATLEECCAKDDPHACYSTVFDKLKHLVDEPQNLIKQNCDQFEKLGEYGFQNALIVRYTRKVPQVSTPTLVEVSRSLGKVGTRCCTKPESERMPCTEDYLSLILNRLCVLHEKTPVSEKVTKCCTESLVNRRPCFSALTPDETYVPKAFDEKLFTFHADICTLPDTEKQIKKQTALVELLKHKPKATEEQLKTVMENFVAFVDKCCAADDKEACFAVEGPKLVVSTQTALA

[3] = system: MCF-7 (human breast adenocarcinoma); assay: Photodynamic activity (phototoxicity, neutral red uptake) on MCF-7; assay type: cell-based; conditions: 12 h incubation, Xe-lamp 15 min, λ > 570 nm, 11.2 J/cm^2, mean ± SD, t.w. = this work
Description: (§1) Detailed in vitro studies involving subcellular localization and determination of the EC50 in three different cell lines (human cervical carcinoma–HeLa, human breast adenocarcinoma–MCF-7, and human skin melanoma–SK-MEL-28) were performed. A broadband light source (ozone-free 450 W Xe-lamp, Newport) equipped with the long-pass filter Schott OG570 was used (12.4 mW/cm^2, 15 min, 11.2 J/cm^2).
(§2) For the cytotoxicity experiments (phototoxicity), cells were seeded at 100 μL per well into 96-well plates (TPP, Switzerland) at a density of 7.5 × 10^3 (HeLa) or 1.0 × 10^4 (MCF-7 and SK-MEL-28) cells per well. Cells were left to grow for 24 h (until they reached confluency) in a controlled environment of a CO2 incubator (37 °C, 5% CO2 atmosphere, constant high humidity). Subsequently, studied compounds were added in a wide concentration range and incubated with the cells for 12 h. Cells were washed; fresh cell culture medium was added, and the cells were irradiated using a 450 W Xe lamp (Newport, USA). The lamp was equipped with a long pass filter (Newport OG570) and an 8 cm water filter (λ > 570 nm, 12.4 mW/cm^2, 15 min, 11.2 J/cm^2). Cellular viability was assessed after an additional 24 h by the neutral red (NR; Sigma, Merck, USA) uptake assay. At least three independent experiments, each in triplicate, were performed. The soluble NR was measured at λ = 540 nm using a Tecan Infinite 200 M plate reader (Tecan, Austria). The viability of each experimental group was expressed as the percentage of the untreated cells (100% viability) after subtraction of the signal from cells treated with a lethal dose of hydrogen peroxide (0% viability). […] EC50 values were calculated, and graphs were created by using GraphPad Prism 10.3.1 (Graph Pad software, USA).

[4] = system: HeLa (human cervical carcinoma); assay: Photodynamic activity (phototoxicity, neutral red uptake) on HeLa; assay type: cell-based; conditions: 12 h incubation, Xe-lamp 15 min, λ > 570 nm, 11.2 J/cm^2, mean ± SD, t.w. = this work
Description: as §1, §2

[5] = Log P, partition between n-octanol and PBS; assay type: physicochemical; conditions: partition coefficient between 1-octanol and PBS
Description: 400 μL portion of n-octanol and 400 μL of PBS buffer were mixed in a plastic Eppendorf vial. Then, 20 μL of the 100 μM stock solution of the sample (see above) was added to this mixture, vortexed for 5 min at rt, and then centrifuged for 10 min (10 000 rpm, rt). 50 μL of each of these layers was taken into 2.5 mL of DMF in a quartz cuvette, and their emission spectra (excitation wavelengths in Table ) were recorded. The log P value was then computed using the area under the curve of the emission spectra of n-octanol (F oct) and PBS buffer (F PBS) layers as follows: logP=log(Foct/FPBS) Triplicate measurements were performed, and the data reported are the mean of the obtained results.

[6] = Fluorescence quantum yield, comparative method; assay type: physicochemical; conditions: in DMF; ZnPc as reference
Description: The fluorescence quantum yields (ΦF) were determined by a comparative method with ZnPc as the reference (ΦF = 0.32 in THF). The ΦF values were calculated using the following formula: ϕFS=ϕFR(F^S/F^R)(1−10^−A^R/1−10^−A^S)(η^S/η^R)^2 where F is the integrated area under the emission spectrum and A is the absorbance at the excitation wavelength. Superscripts R and S indicate the reference and sample, respectively. η stands for the refractive index of the solvent. Absorption in the Q-band was kept below 0.05 to eliminate the inner filter effect. Excitation wavelengths were the same as those used for emission spectra (see above). The emission wavelengths were set to their emission maxima to avoid exceeding the detector limit with stimated error ± 15%.

[7] = system: SK-MEL-28 (human skin melanoma); assay: Photodynamic activity (phototoxicity, neutral red uptake) on SK-MEL-28; assay type: cell-based; conditions: 12 h incubation, Xe-lamp 15 min, λ > 570 nm, 11.2 J/cm^2, mean ± SD, t.w. = this work
Description: as §1, §2

[8] = Quantum yield of singlet oxygen production, comparative method with DPBF scavenger; assay type: physicochemical; conditions: in DMF, ZnPc as reference
Description: Eight μL of the 100 μM stock solution of the dye in DMF (or DMF + water or water; see above) was added. A xenon lamp (100 W, ozone free XE DC short arc lamp, New port) was used to irradiate the sample while stirring. The incident light was filtered through a water filter (6 cm) and cut off filter OG530 eliminating heat and light under 523 nm, respectively. […] The decrease of DPBF in solution with irradiation time was monitored at 415 nm. The values of ΦΔ of the dyes were calculated by the following equation: φΔS=φΔ[…] is the slope of the plot of the dependence of ln([…] 0 and A t being the absorbances of the DPBF at 415 nm before irradiation and after irradiation time t, respectively. I aT is the total amount of light absorbed by the dye sample. Superscripts R and S indicate the reference and sample, respectively. I aT is calculated as a sum of intensities of the absorbed light I a at wavelengths from 523 to 850 nm (step 0.5 nm). Light under 523 nm is completely filtered by an OG530 filter, and light above 850 nm is not absorbed by the studied dye sample. I a at a given wavelength is calculated using Beer-Lambert'[…]) where I 0 is transmittance of the filter at the given wavelength and A is the absorbance of the dye at this wavelength. All experiments were performed three times, and the data presented is the mean value of the three obtained results with estimated error ± 10%.

[9] = Fluorescence lifetime in DMF; assay type: physicochemical
Text: 1 Photophysical Data of Investigated Derivatives in DMF ^a | column: τF1/ns; τF2/ns

| logP ([5]; n-octanol/PBS buffer) | SMILES | ε, extinction coefficient [1] | λA, absorption maximum in the Q-band [1] | λF, fluorescence emission maximum [1] | Interaction with BSA: disaggregation/monomerization and changes in absorption and fluorescence emission spectra [2] | EC50 [3] | EC50 [4] | Log P [5] | ΦF, fluorescence quantum yield [6] | EC50 [7] | ΦΔ, quantum yield of singlet oxygen production [8] | EC50 ([3]; Homo sapiens, MCF7, light or radiation study) | EC50 ([4]; Homo sapiens, HeLa, light or radiation study) | EC50 ([7]; Homo sapiens, SK-MEL-28, light or radiation study) | τF1, fluorescence lifetime (relative amplitude in brackets) [9] | τF2, fluorescence lifetime (relative amplitude in brackets) [9] |
| --- | --- | --- | --- | --- | --- | --- | --- | --- | --- | --- | --- | --- | --- | --- | --- | --- |
|  | O=S(=O)([O-])c1cc(S(=O)(=O)[O-])c2cc(Oc3cccc4c3C3=NC4=Nc4c5c(Oc6ccc7cc(S(=O)(=O)[O-])cc(S(=O)(=O)[O-])c7c6)cccc5c5[n]4[Zn][n]4c(c6cccc(Oc7ccc8cc(S(=O)(=O)[O-])cc(S(=O)(=O)[O-])c8c7)c6c4=NC4=NC(=N5)c5c(Oc6ccc7cc(S(=O)(=O)[O-])cc(S(=O)(=O)[O-])c7c6)cccc54)=N3)ccc2c1.[Na+].[Na+].[Na+].[Na+].[Na+].[Na+].[Na+].[Na+] [A7Zn] | 109 950 M^–1cm^–1 | 696 nm | 707 nm | complete | 5100 ± 350 nM | 1300 ± 400 nM | –2.92 | 0.23 | 2120 ± 560 nM | 0.55 |  |  |  |  |  |
| -1.35 | O=S(=O)([O-])c1ccc2c(c1)-c1nc-2nc2[nH]c(nc3nc(nc4[nH]c(n1)c1ccccc41)-c1ccc(S(=O)(=O)[O-])cc1-3)c1ccc(S(=O)(=O)[O-])cc21.[Na+].[Na+].[Na+] [A9H] | 104 650 M^–1cm^–1 |  | 703 nm | partial |  |  |  | 0.22 |  | 0.19 | 347 ± 125 nM | 85 ± 7 nM | 300 ± 77 nM | 1.97 (18%) ns | 3.87 (82%) ns |
|  | C[n+]1cccc(Oc2ccc3c(c2)C2=NC3=Nc3c4cc(Oc5ccc[n+](C)c5)ccc4c4[n]3[Zn][n]3c(c5ccc(Oc6ccc[n+](C)c6)cc5c3=NC3=NC(=N4)c4cc(Oc5ccc[n+](C)c5)ccc43)=N2)c1.[I-].[I-].[I-].[I-] [C5Zn-I] | 130 860 M^–1cm^–1 | 674 nm | 682 nm |  | 60 ± 10 nM | 62 ± 13 nM | –2.19 | 0.25 | 110 ± 10 nM | 0.49 |  |  |  | 2.38 (97%) ns | 6.53 (3%) ns |
|  | C[n+]1cccc(Oc2ccc3c(c2)C2=NC3=Nc3c4cc(Oc5ccc[n+](C)c5)ccc4c4[n]3[Zn][n]3c(c5ccc(Oc6ccc[n+](C)c6)cc5c3=NC3=NC(=N4)c4cc(Oc5ccc[n+](C)c5)ccc43)=N2)c1.F[P-](F)(F)(F)(F)F.F[P-](F)(F)(F)(F)F.F[P-](F)(F)(F)(F)F.F[P-](F)(F)(F)(F)F [C5Zn-PF 6] | 86 800 M^–1cm^–1 | 674 nm | 682 nm |  | 100 ± 20 nM | 52 ± 26 nM | –2.37 | 0.28 | 190 ± 40 nM | 0.45 |  |  |  | 2.32 (97%) ns | 6.31 (3%) ns |
|  | C[n+]1cccc(Oc2ccc3c(c2)C2=NC3=Nc3c4cc(Oc5ccc[n+](C)c5)ccc4c4[n]3[Zn][n]3c(c5ccc(Oc6ccc[n+](C)c6)cc5c3=NC3=NC(=N4)c4cc(Oc5ccc[n+](C)c5)ccc43)=N2)c1.O=S(=O)(O)O.O=S(=O)(O)O.O=S(=O)([O-])[O-].O=S(=O)([O-])[O-] [C5Zn-SO 4] | 82 140 M^–1cm^–1 | 674 nm | 682 nm |  | 80 ± 30 nM | 53 ± 9 nM | –3.57 | 0.077 and 0.08 | 150 ± 50 nM | 0.28 |  |  |  | 2.47 (94%) ns | 4.93 (6%) ns |
|  | COCCOCCOCCOCCOc1ccc(OCCOCCOCCOCCOC)c2c1C1=NC2=Nc2c3ccccc3c3[n]2[Zn][n]2c(c4ccccc4c2=N1)=NC1=NC(=N3)c2ccccc21 [N1Zn] | 82 550 M^–1cm^–1 | 689 nm | 702 nm | monomerization was apparent even from the absorption spectra | 6 ± 1 nM | 17 ± 5 nM |  | 0.24 | 16 ± 3 nM | 0.67 |  |  |  | 2.41 ns |  |
|  | OCc1cc(CO)cc(OCCCCSC2=C(SCCCCOc3cc(CO)cc(CO)c3)C3=Nc4c5ccccc5c5[n]4[Mg][n]4c(c6ccccc6c4=NC4=NC(=N5)c5ccccc54)=NC2=N3)c1 [N2Mg] | 15 950 M^–1cm^–1 | 684 nm | 687 nm | fluorescence was slightly enhanced | 190 ± 40 nM | 107 ± 1 nM |  | 0.16 | 119 ± 14 nM | 0.17 |  |  |  | 1.29 (25%) ns | 3.39 (75%) ns |
